The test concerns the target T1, recombinant sEH (Homo sapiens, UniProt P34913).
T1 construct: made in house; host or cells: Sf9 insect cells
T1 sequence (P34913 1-555): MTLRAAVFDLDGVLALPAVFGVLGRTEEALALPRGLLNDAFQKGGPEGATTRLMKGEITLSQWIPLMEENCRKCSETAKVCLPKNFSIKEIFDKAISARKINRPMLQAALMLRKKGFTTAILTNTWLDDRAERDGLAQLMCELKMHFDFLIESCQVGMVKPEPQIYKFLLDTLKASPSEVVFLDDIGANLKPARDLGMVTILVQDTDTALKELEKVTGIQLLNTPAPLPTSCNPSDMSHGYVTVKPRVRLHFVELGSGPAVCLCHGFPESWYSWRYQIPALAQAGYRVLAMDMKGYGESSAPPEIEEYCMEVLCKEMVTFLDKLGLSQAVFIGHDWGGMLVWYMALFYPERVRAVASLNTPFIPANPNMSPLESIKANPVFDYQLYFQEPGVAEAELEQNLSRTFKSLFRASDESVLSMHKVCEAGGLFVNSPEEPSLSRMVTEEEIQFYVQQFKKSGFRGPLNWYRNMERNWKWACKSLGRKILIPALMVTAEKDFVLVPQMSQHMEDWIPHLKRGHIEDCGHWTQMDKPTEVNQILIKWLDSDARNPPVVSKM
The test is described as follows: biochemical screening assay for inhibition of soluble epoxide hydrolase (fluorometric, Phome substrate). The method, boiled down: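 Human sEH from Sf9 cells (2 nM final) was pre-incubated 15 min at 30 °C with compound (0.0001–10 μM), then reacted 60 min at 30 °C with 5 μM Phome in 25 mM Hepes/0.01% albumin. Fluorescence of released 6-methoxy-2-naphthaldehyde was read before substrate and at end; IC50 from % inhibition.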

Our source for the IC50 values is US9540391B2, “Isomannide derivatives as inhibitors of soluble epoxide hydrolase” (SANOFI, priority 2013, dated 2017).

On to `COc1cccc(CNC(=O)N[C@H]2CO[C@H]3[C@@H]2OC[C@@H]3Oc2cccnc2C)n1` [Example 202, 1-(6-Methoxy-pyridin-2-ylmethyl)-3-[(3S,3aR,6S,6aS)-6-(2-methyl-pyridin-3-yloxy)-hexahydro-furo[3,2-b]furan-3-yl]-urea], for which the IC50 (as a rule, the concentration that gives 50% inhibition) turned out to be 0.345 µM. As for `COc1cc(CNC(=O)N[C@H]2CO[C@H]3[C@@H]2OC[C@@H]3Oc2cccnc2C)ccn1` [Example 203, 1-(2-Methoxy-pyridin-4-ylmethyl)-3-[(3S,3aR,6S,6aS)-6-(2-methyl-pyridin-3-yloxy)-hexahydro-furo[3,2-b]furan-3-yl]-urea], the IC50 worked out at 0.028 µM.

For `Cc1ncccc1O[C@H]1CO[C@H]2[C@@H]1OC[C@@H]2NC(=O)NC(C)(C)c1ccc(F)cc1` [Example 204, 1-[1-(4-Fluoro-phenyl)-1-methyl-ethyl]-3-[(3S,3aR,6S,6aS)-6-(2-methyl-pyridin-3-yloxy)-hexahydro-furo[3,2-b]furan-3-yl]-urea], the half-maximal inhibitory concentration (IC50) worked out at 0.734 µM. As for `Cc1cccnc1CCNC(=O)N[C@H]1CO[C@H]2[C@@H]1OC[C@@H]2Oc1cccnc1C` [Example 205, 1-[2-(3-Methyl-pyridin-2-yl)-ethyl]-3-[(3S,3aR,6S,6aS)-6-(2-methyl-pyridin-3-yloxy)-hexahydro-furo[3,2-b]furan-3-yl]-urea], the figure is 0.528 µM; as for `Cc1ncccc1OC1COC2C(NC(=O)NCCc3ccccc3OC(F)(F)F)COC12` [Example 206, 1-[(3S,3aR,6S,6aS)-6-(2-Methyl-pyridin-3-yloxy)-hexahydro-furo[3,2-b]furan-3-yl]-3-[2-(2-trifluoro-methoxy-phenyl)-ethyl]-urea], 0.002 µM. In the case of `Cc1ncccc1O[C@H]1CO[C@H]2[C@@H]1OC[C@@H]2NC(=O)NC1CCOc2ccccc21` (stereo partly drawn) [Example 207, 1-Chroman-4-yl-3-[(3S,3aR,6S,6aS)-6-(2-methyl-pyridin-3-yloxy)-hexa-hydro-furo[3,2-b]furan-3-yl]-urea], the half-inhibitory concentration (IC50) amounted to 0.003 µM. As for `Cc1ncccc1O[C@H]1CO[C@H]2[C@@H]1OC[C@@H]2NC(=O)NCc1ccc(Cl)s1` [Example 208, 1-(5-Chloro-thiophen-2-ylmethyl)-3-[(3S,3aR,6S,6aS)-6-(2-methyl-pyridin-3-yloxy)-hexahydro-furo[3,2-b]furan-3-yl]-urea], the figure is 0.015 µM. Turning to `Cc1ncccc1O[C@H]1CO[C@H]2[C@@H]1OC[C@@H]2NC(=O)NCC1(C)CCCO1` (stereo partly drawn) [Example 209, 1-[(3S,3aR,6S,6aS)-6-(2-Methyl-pyridin-3-yloxy)-hexahydro-furo[3,2-b]furan-3-yl]-3-(2-methyl-tetrahydro-furan-2-ylmethyl)-urea], the concentration for half-maximal inhibition (IC50) came to 0.819 µM. The same measure for `COCC1(NC(=O)N[C@H]2CO[C@H]3[C@@H]2OC[C@@H]3Oc2cccnc2C)CCCC1` [Example 210, 1-(1-Methoxymethyl-cyclopentyl)-3-[(3S,3aR,6S,6aS)-6-(2-methyl-pyridin-3-yloxy)-hexahydro-furo[3,2-b]furan-3-yl]-urea]: 0.144 µM. As for `COCC(NC(=O)N[C@H]1CO[C@H]2[C@@H]1OC[C@@H]2Oc1cccnc1C)c1ccnn1C` (stereo partly drawn) [Example 211, 1-[2-Methoxy-1-(2-methyl-2H-pyrazol-3-yl)-ethyl]-3-[(3S,3aR,6S,6aS)-6-(2-methyl-pyridin-3-yloxy)-hexahydro-furo[3,2-b]furan-3-yl]-urea], the figure is 1.08 µM; as for `Cc1ncccc1O[C@H]1CO[C@H]2[C@@H]1OC[C@@H]2NC(=O)NC1CCN(C(=O)C(C)C)CC1` [Example 212, 1-(1-Isobutyryl-piperidin-4-yl)-3-[(3S,3aR,6S,6aS)-6-(2-methyl-pyridin-3-yloxy)-hexahydro-furo[3,2-b]furan-3-yl]-urea], 0.037 µM; as for `Cc1ncccc1O[C@H]1CO[C@H]2[C@@H]1OC[C@@H]2NC(=O)NC[C@@H]1C[C@@H]2C[C@H]([C@H]1C)C2(C)C` [Example 213, 1-[(3S,3aR,6S,6aS)-6-(2-Methyl-pyridin-3-yloxy)-hexahydro-furo[3,2-b]furan-3-yl]-3-((1R,2R,3R,5S)-2,6,6-trimethyl-bicyclo[3.1.1]hept-3-ylmethyl)-urea], 0.003 µM. As for `Cc1ncccc1O[C@H]1CO[C@H]2[C@@H]1OC[C@@H]2NC(=O)NC(C)c1ccc(F)cc1` (stereo partly drawn) [Example 214, 1-[1-(4-Fluoro-phenyl)-ethyl]-3-[(3S,3aR,6S,6aS)-6-(2-methyl-pyridin-3-yloxy)-hexahydro-furo[3,2-b]furan-3-yl]-urea], the figure is 0.014 µM; as for `Cc1ncccc1O[C@H]1CO[C@H]2[C@@H]1OC[C@@H]2NC(=O)Nc1cc(C(C)(C)C)[nH]n1` [Example 215, 1-(5-tert-Butyl-1H-pyrazol-3-yl)-3-[(3S,3aR,6S,6aS)-6-(2-methyl-pyridin-3-yloxy)-hexahydro-furo[3,2-b]furan-3-yl]-urea], 0.238 µM; as for `Cc1ncccc1O[C@H]1CO[C@H]2[C@@H]1OC[C@@H]2NC(=O)NC1CCOCC1` [Example 216, 1-[(3S,3aR,6S,6aS)-6-(2-Methyl-pyridin-3-yloxy)-hexahydro-furo[3,2-b]furan-3-yl]-3-(tetrahydro-pyran-4-yl)-urea], 0.125 µM. With `Cc1ncccc1O[C@H]1CO[C@H]2[C@@H]1OC[C@@H]2NC(=O)NCCOC(C)(C)C` [Example 217, 1-(2-tert-Butoxy-ethyl)-3-[(3S,3aR,6S,6aS)-6-(2-methyl-pyridin-3-yloxy)-hexahydro-furo[3,2-b]furan-3-yl]-urea], the 50% inhibitory concentration (IC50) stood at 0.371 µM. On to `Cc1nc(CCNC(=O)N[C@H]2CO[C@H]3[C@@H]2OC[C@@H]3Oc2cccnc2C)cs1` [Example 218, 1-[(3S,3aR,6S,6aS)-6-(2-Methyl-pyridin-3-yloxy)-hexahydro-furo[3,2-b]furan-3-yl]-3-[2-(2-methyl-thiazol-4-yl)-ethyl]-urea], for which the IC50 amounted to 0.389 µM. As for `Cc1ncccc1O[C@H]1CO[C@H]2[C@@H]1OC[C@@H]2NC(=O)NCC1CN(C)CCO1` (stereo partly drawn) [Example 219, 1-(4-Methyl-morpholin-2-ylmethyl)-3-[(3S,3aR,6S,6aS)-6-(2-methyl-pyridin-3-yloxy)-hexahydro-furo[3,2-b]furan-3-yl]-urea], the figure is 1.9 µM; as for `Cc1ncccc1O[C@H]1CO[C@H]2[C@@H]1OC[C@@H]2NC(=O)NC1(C#N)CCCCC1` [Example 220, 1-(1-Cyano-cyclohexyl)-3-[(3S,3aR,6S,6aS)-6-(2-methyl-pyridin-3-yloxy)-hexahydro-furo[3,2-b]furan-3-yl]-urea], 0.506 µM.

`Cc1ncccc1O[C@H]1CO[C@H]2[C@@H]1OC[C@@H]2NC(=O)NC1CCCOC1` (stereo partly drawn) [Example 221, 1-[(3S,3aR,6S,6aS)-6-(2-Methyl-pyridin-3-yloxy)-hexahydro-furo[3,2-b]furan-3-yl]-3-(tetrahydro-pyran-3-yl)-urea]: the IC50 is 0.096 µM. Regarding `Cc1ncccc1O[C@H]1CO[C@H]2[C@@H]1OC[C@@H]2NC(=O)NCc1c(C)n[nH]c1C` [Example 222, 1-(3,5-Dimethyl-1H-pyrazol-4-ylmethyl)-3-[(3S,3aR,6S,6aS)-6-(2-methyl-pyridin-3-yloxy)-hexahydro-furo[3,2-b]furan-3-yl]-urea], the IC50 came to 0.054 µM. As for `Cc1ncccc1O[C@H]1CO[C@H]2[C@@H]1OC[C@@H]2NC(=O)NCCc1ccc(S(C)(=O)=O)cc1` [Example 223, 1-[2-(4-Methanesulfonyl-phenyl)-ethyl]-3-[(3S,3aR,6S,6aS)-6-(2-methyl-pyridin-3-yloxy)-hexahydro-furo[3,2-b]furan-3-yl]-urea], the figure is 0.262 µM; as for `Cc1ncccc1O[C@H]1CO[C@H]2[C@@H]1OC[C@@H]2NC(=O)NCc1cccc2c1OC(C)(C)C2` [Example 224, 1-(2,2-Dimethyl-2,3-dihydro-benzofuran-7-ylmethyl)-3-[(3S,3aR,6S,6aS)-6-(2-methyl-pyridin-3-yloxy)-hexahydro-furo[3,2-b]furan-3-yl]-urea], 0.039 µM; as for `Cc1nn(C(C)C)cc1NC(=O)N[C@H]1CO[C@H]2[C@@H]1OC[C@@H]2Oc1cccnc1C` [Example 225, 1-(1-Isopropyl-3-methyl-1H-pyrazol-4-yl)-3-[(3S,3aR,6S,6aS)-6-(2-methyl-pyridin-3-yloxy)-hexahydro-furo[3,2-b]furan-3-yl]-urea], 0.043 µM. For the compound `Cc1ncccc1O[C@H]1CO[C@H]2[C@@H]1OC[C@@H]2NC(=O)NC(C)(C)COC(C)(C)C` [Example 226, 1-(2-tert-Butoxy-1,1-dimethyl-ethyl)-3-[(3S,3aR,6S,6aS)-6-(2-methyl-pyridin-3-yloxy)-hexahydro-furo[3,2-b]furan-3-yl]-urea], the concentration for half-maximal inhibition (IC50) was 0.475 µM. Consider `Cc1nc(CNC(=O)N[C@H]2CO[C@H]3[C@@H]2OC[C@@H]3Oc2cccnc2C)cs1` [Example 227, 1-[(3S,3aR,6S,6aS)-6-(2-Methyl-pyridin-3-yloxy)-hexahydro-furo[3,2-b]furan-3-yl]-3-(2-methyl-thiazol-4-ylmethyl)-urea], for which the 50% inhibitory concentration (IC50) amounted to 1.68 µM. As to `Cc1ncccc1O[C@H]1CO[C@H]2[C@@H]1OC[C@@H]2NC(=O)NC1CCSCC1` [Example 228, 1-[(3S,3aR,6S,6aS)-6-(2-Methyl-pyridin-3-yloxy)-hexahydro-furo[3,2-b]furan-3-yl]-3-(tetrahydro-thiopyran-4-yl)-urea], the IC50 came to 0.009 µM.
